This is an account of results in patent US20230265151A1, “GIP/GLP1 CO-AGONIST COMPOUNDS” (priority 2020, published 2023).

Holding throughout (type): cell-based
One assay addresses T1, hGCGR (Homo sapiens, UniProt P47871).
T1 construct: expressed in transfected cells
In words: Functional cAMP formation (HTRF) in HEK-293 clonal cells expressing hGCGR, 0.1% bovine casein, without or with 1.0% human serum albumin. A digest of the protocol:
(§1)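 Cells were stimulated with peptide for 30 min at 37° C, then intracellular cAMP was measured by competitive HTRF (665/620 nm ratio) and converted to nM using a cAMP standard curve. Relative EC50 and Emax came from four-parameter logistic fits of percent maximal response against peptide concentration.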
(cAMP levels reflect the balance of adenylyl cyclase and phosphodiesterase activity.)

A further assay has as its target hGLP-1R (Homo sapiens, UniProt P43220). The assay can be described thus: Functional cAMP formation (HTRF) in HEK-293 clonal cells expressing hGLP-1R, 0.1% bovine casein, without or with 1.0% human serum albumin. Details: expressed in transfected cells. To be noted: for Emax: percent of maximal response to GLP-1(7-36)NH2; for EC50: 37° C., geometric mean. A digest of the protocol:
as §1

A further assay addresses T2, hGIPR (Homo sapiens, UniProt P48546).
T2 construct: expressed in transfected cells
T2 sequence (P48546 22-466): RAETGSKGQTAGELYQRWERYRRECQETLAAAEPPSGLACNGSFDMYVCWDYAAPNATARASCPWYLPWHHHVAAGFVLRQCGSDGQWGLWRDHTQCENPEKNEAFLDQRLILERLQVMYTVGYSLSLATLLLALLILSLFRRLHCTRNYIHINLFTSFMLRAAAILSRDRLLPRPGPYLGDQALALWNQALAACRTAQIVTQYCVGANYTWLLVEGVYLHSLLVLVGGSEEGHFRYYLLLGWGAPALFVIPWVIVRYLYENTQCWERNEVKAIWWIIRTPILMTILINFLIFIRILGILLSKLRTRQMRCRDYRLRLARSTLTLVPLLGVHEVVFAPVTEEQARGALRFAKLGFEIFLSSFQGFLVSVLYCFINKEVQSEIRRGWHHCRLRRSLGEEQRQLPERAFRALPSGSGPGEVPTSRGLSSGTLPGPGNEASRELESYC
The assay can be described thus: Functional cAMP formation (HTRF) in HEK-293 clonal cells expressing hGIPR, 0.1% bovine casein, without or with 1.0% human serum albumin. Conditions: for EC50: geometric mean. A digest of the protocol: as §1

Where [1] appears, read: hGCGR EC50, nM (SEM, n), cAMP, 37° C., 0.1% bovine casein (no human serum albumin), geometric mean.
Where [2] appears, read: hGCGR EC50, nM (SEM, n), cAMP, 37° C., 0.1% bovine casein and 1.0% human serum albumin, geometric mean (SEM, n).
Where [3] appears, read: HEK293, read-out: hGLP-1R Emax, % ± SEM, cAMP, 37° C., 0.1% bovine casein and 1.0% human serum albumin.
Setting [4] is: hGLP-1R EC50, nM (SEM, n), cAMP, 0.1% bovine casein (no human serum albumin).
The mark [5] stands for this setting: HEK293, read-out: hGIPR Emax, % ± SEM, cAMP, 37° C., 0.1% bovine casein and 1.0% human serum albumin, percent of maximal response to GIP(1-42)NH2.
The mark [6] stands for this setting: HEK293, read-out: hGIPR Emax, % ± SEM, cAMP, 37° C., 0.1% bovine casein, percent of maximal response to GIP(1-42)NH2, arithmetic mean.
Where [7] appears, read: hGIPR EC50, nM (SEM, n), cAMP, 37° C., 0.1% bovine casein (no human serum albumin).

SMILES strings stand for the structures. Like-named read-outs stand apart in the source and are kept apart here. *1 amine or outer side, *2 acyl side, *3 side chain or, on linkers, in order; H or OH if unused. Where a SMILES comes first, the peptide text is derived from it. Side-chain parts run from the residue outwards. [ ]: non-standard residue; d: D form. The star is where a group is joined. Decanoyl(10-(4-HOOC-PhO)) = O=C(O)c1ccc(OCCCCCCCCCC(=O)*)cc1; αMePhe(2-F) = C[C@](N)(Cc1ccccc1F)C(=O)O; γGlu = O=C(O)[C@H](CCC(=O)[*:2])N[*:1]; αMeY = C[C@](N)(Cc1ccc(O)cc1)C(=O)O; αMeL = CC(C)C[C@](C)(N)C(=O)O; Orn = NCCC[C@H](N)C(=O)O; AEEA = NCCOCCOCC(=O)O; Aib = CC(C)(N)C(=O)O

T1 sequence (P47871 26-477): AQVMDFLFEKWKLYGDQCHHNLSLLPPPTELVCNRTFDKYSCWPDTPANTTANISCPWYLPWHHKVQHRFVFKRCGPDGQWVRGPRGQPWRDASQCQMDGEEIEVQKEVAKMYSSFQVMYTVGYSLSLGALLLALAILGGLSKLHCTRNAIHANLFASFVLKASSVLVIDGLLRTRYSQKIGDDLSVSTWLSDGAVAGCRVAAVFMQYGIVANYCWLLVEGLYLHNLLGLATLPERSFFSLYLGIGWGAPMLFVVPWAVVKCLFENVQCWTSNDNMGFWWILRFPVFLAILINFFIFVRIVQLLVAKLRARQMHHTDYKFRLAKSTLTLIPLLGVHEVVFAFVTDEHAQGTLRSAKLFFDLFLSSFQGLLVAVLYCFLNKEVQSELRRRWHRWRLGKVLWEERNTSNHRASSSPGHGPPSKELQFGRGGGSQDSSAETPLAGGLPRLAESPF
Sequence of hGLP-1R (P43220 24-463): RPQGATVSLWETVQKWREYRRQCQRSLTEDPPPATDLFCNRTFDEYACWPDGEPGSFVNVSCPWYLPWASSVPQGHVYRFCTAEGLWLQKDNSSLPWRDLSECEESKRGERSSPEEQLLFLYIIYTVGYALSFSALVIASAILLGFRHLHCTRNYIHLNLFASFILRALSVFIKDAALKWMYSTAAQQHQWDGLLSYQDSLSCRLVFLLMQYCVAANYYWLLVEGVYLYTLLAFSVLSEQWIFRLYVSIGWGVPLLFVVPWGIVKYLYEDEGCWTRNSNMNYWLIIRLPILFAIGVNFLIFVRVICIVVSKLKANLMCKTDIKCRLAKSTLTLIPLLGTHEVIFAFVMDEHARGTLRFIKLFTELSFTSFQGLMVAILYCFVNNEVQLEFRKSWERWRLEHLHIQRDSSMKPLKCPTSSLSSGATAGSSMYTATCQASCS

In general, EC50 refers to the concentration at which the effect is half-maximal. As a reminder, the Emax is the size of the effect at its maximum, as opposed to the concentration needed. Regarding `CC[C@H](C)[C@H](NC(=O)[C@H](CCCN)NC(=O)[C@H](CC(=O)O)NC(=O)[C@H](CC(C)C)NC(=O)[C@](C)(CC(C)C)NC(=O)[C@@H](NC(=O)C(C)(C)NC(=O)[C@H](Cc1ccc(O)cc1)NC(=O)[C@H](CC(=O)O)NC(=O)[C@H](CO)NC(=O)[C@@H](NC(=O)[C@](C)(Cc1ccccc1F)NC(=O)[C@@H](NC(=O)CNC(=O)[C@H](CCC(=O)O)NC(=O)C(C)(C)NC(=O)[C@@H](N)Cc1ccc(O)cc1)[C@@H](C)O)[C@@H](C)O)[C@@H](C)CC)C(=O)N[C@@H](C)C(=O)N[C@@H](CCC(N)=O)C(=O)NC(C)(C)C(=O)N[C@@H](CCCCNC(=O)COCCOCCNC(=O)CC[C@H](NC(=O)CCCCCCCCCOc1ccc(C(=O)O)cc1)C(=O)O)C(=O)N[C@@H](Cc1ccccc1)C(=O)N[C@H](C(=O)N[C@H](CCC(=O)O)C(=O)N[C@@](C)(Cc1ccc(O)cc1)C(=O)N[C@@H](CC(C)C)C(=O)N[C@H](C(=O)N[C@@H](CCC(=O)O)C(=O)NCC(=O)NCC(=O)N1CCC[C@H]1C(=O)N[C@@H](CO)C(=O)N[C@@H](CO)C(=O)NCC(=O)N[C@@H](C)C(=O)N1CCC[C@H]1C(=O)N1CCC[C@H]1C(=O)N1CCC[C@H]1C(=O)N[C@@H](CO)C(=O)N[C@@H](CCCCNC(=O)COCCOCCNC(=O)CC[C@H](NC(=O)CCCCCCCCCOc1ccc(C(=O)O)cc1)C(=O)O)C(N)=O)[C@@H](C)CC)[C@@H](C)CC` [Example 377] (H-Y[Aib]EGT[αMePhe(2-F)]TSDY[Aib]I[αMeL]LD[Orn]IAQ[Aib]K([AEEA-γGlu-Decanoyl(10-(4-HOOC-PhO))])FI[dE][αMeY]LIEGGPSSGAPPPSK([AEEA-γGlu-Decanoyl(10-(4-HOOC-PhO))])-NH2), the EC50 at hGCGR (setting [1]) was greater than 9950 nM; on hGCGR (setting [2]), greater than 9950 nM; on hGLP-1R (setting [4]), 0.356 nM; on hGIPR (setting [7]) it was 0.0205 nM. In addition, the maximal effect (Emax) on hGLP-1R (setting [3]) is 110%; on hGLP-1R (HEK293, read-out: hGLP-1R Emax, % ± SEM, cAMP, 37° C., 0.1% bovine casein, arithmetic mean) it was 100%; on hGIPR (setting [5]) it was 79.4%; on hGIPR (setting [6]), 92.8%.
`CC[C@H](C)[C@H](NC(=O)[C@H](CC(C)C)NC(=O)[C@](C)(Cc1ccc(O)cc1)NC(=O)[C@@H](CCC(=O)O)NC(=O)[C@@H](NC(=O)[C@H](Cc1ccccc1)NC(=O)[C@H](CCC(=O)O)NC(=O)C(C)(C)NC(=O)[C@H](CCC(N)=O)NC(=O)[C@H](C)NC(=O)[C@H](CCCCNC(=O)COCCOCCNC(=O)CC[C@H](NC(=O)CCCCCCCCCCCCC(=O)O)C(=O)O)NC(=O)[C@H](CCCN)NC(=O)[C@H](CC(=O)O)NC(=O)[C@H](CC(C)C)NC(=O)[C@](C)(CC(C)C)NC(=O)[C@@H](NC(=O)[C@H](CO)NC(=O)[C@H](Cc1ccncc1)NC(=O)[C@H](CC(=O)O)NC(=O)[C@H](CO)NC(=O)[C@@H](NC(=O)[C@](C)(Cc1ccccc1F)NC(=O)[C@@H](NC(=O)CNC(=O)[C@H](CCC(=O)O)NC(=O)C(C)(C)NC(=O)[C@@H](N)Cc1ccc(O)cc1)[C@@H](C)O)[C@@H](C)O)[C@@H](C)CC)[C@@H](C)CC)C(=O)N[C@@H](CCC(=O)O)C(=O)NCC(=O)NCC(=O)N[C@@H](CCCCNC(=O)COCCOCCNC(=O)CC[C@H](NC(=O)CCCCCCCCCCCCC(=O)O)C(=O)O)C(=O)N[C@@H](CO)C(=O)N[C@@H](CO)C(=O)NCC(=O)N[C@@H](C)C(=O)N1CCC[C@H]1C(=O)N1CCC[C@H]1C(=O)N1CCC[C@H]1C(=O)N[C@@H](CO)C(N)=O` [Example 11]: the EC50 was greater than 9950 nM at hGCGR (0.1% bovine casein and 1.0% human serum albumin, 37° C., geometric mean, read-out: hGCGR EC50, nM (SEM, n)); greater than 9950 nM at hGCGR (cAMP, incubated at 37° C., 0.1% bovine casein (no human serum albumin), geometric mean, read-out: hGCGR EC50, nM (SEM, n)); 34.5 nM on hGLP-1R (0.1% bovine casein and 1.0% human serum albumin, read-out: hGLP-1R EC50, nM (SEM, n)); 1.22 nM at hGIPR (0.1% bovine casein and 1.0% human serum albumin, 37° C., read-out: hGIPR EC50, nM (SEM, n)); 0.0135 nM on hGIPR (cAMP, incubated at 37° C., 0.1% bovine casein (no human serum albumin), read-out: hGIPR EC50, nM (SEM, n)). The Emax amounted to 90 ± 2.71% at hGIPR (HEK293, 0.1% bovine casein and 1.0% human serum albumin, 37° C., percent of maximal response to GIP(1-42)NH2, read-out: hGIPR Emax, % ± SEM); 97.7 ± 2.82% at hGIPR (HEK293, percent of maximal response to GIP(1-42)NH2, 37° C., 0.1% bovine casein, arithmetic mean, read-out: hGIPR Emax, % ± SEM).
Regarding `CC[C@H](C)[C@H](NC(=O)[C@H](CC(C)C)NC(=O)[C@](C)(Cc1ccc(O)cc1)NC(=O)[C@@H](CCC(=O)O)NC(=O)[C@@H](NC(=O)[C@H](Cc1ccccc1)NC(=O)[C@H](CCCN)NC(=O)C(C)(C)NC(=O)[C@H](CCC(N)=O)NC(=O)[C@H](C)NC(=O)[C@H](CCCCNC(=O)COCCOCCNC(=O)COCCOCCNC(=O)CC[C@H](NC(=O)CCCCCCCCCOc1ccc(C(=O)O)cc1)C(=O)O)NC(=O)[C@H](CCCN)NC(=O)[C@H](CC(=O)O)NC(=O)[C@H](CC(C)C)NC(=O)[C@](C)(CC(C)C)NC(=O)[C@@H](NC(=O)C(C)(C)NC(=O)[C@H](Cc1ccc(O)cc1)NC(=O)[C@H](CC(=O)O)NC(=O)[C@H](CO)NC(=O)[C@@H](NC(=O)[C@](C)(Cc1ccccc1F)NC(=O)[C@@H](NC(=O)CNC(=O)[C@H](CCC(=O)O)NC(=O)C(C)(C)NC(=O)[C@@H](N)Cc1ccc(O)cc1)[C@@H](C)O)[C@@H](C)O)[C@@H](C)CC)[C@@H](C)CC)C(=O)N[C@@H](CCCCNC(=O)COCCOCCNC(=O)COCCOCCNC(=O)CC[C@H](NC(=O)CCCCCCCCCOc1ccc(C(=O)O)cc1)C(=O)O)C(=O)NCC(=O)NCC(=O)N1CCC[C@H]1C(=O)N[C@@H](CO)C(=O)N[C@@H](CO)C(=O)NCC(=O)N[C@@H](C)C(=O)N1CCC[C@H]1C(=O)N1CCC[C@H]1C(=O)N1CCC[C@H]1C(=O)N[C@@H](CO)C(N)=O` [Example 352] (H-Y[Aib]EGT[αMePhe(2-F)]TSDY[Aib]I[αMeL]LD[Orn]K([AEEA-AEEA-γGlu-Decanoyl(10-(4-HOOC-PhO))])AQ[Aib][Orn]FI[dE][αMeY]LIK([AEEA-AEEA-γGlu-Decanoyl(10-(4-HOOC-PhO))])GGPSSGAPPPS-NH2), the EC50 was greater than 9950 nM on hGCGR (setting [1]), greater than 9950 nM at hGCGR (setting [2]), 0.262 nM on hGLP-1R (setting [4]) and 0.0106 nM at hGIPR (setting [7]). For the same compound, the Emax on hGLP-1R (setting [3]) was determined as 93.5%; on hGIPR (setting [5]) it was 71.3%; on hGIPR (setting [6]), 98.3%.
